Measured values as given in patent US9738677B2, “Amphotericin B derivative with reduced toxicity” (priority 2014, dated 2017).
≈ marks a conversion by molar mass, not a printed value. Entries after “also recorded” stand apart in the source; their conditions may differ.

Assays:
[1] = ITC sterol binding, POPC LUVs containing 10% ergosterol
Procedure: (§1) Isothermal Titration calorimetry (ITC)
(§2) In an optimized isothermal titration calorimetry (ITC)-based assay, an aqueous solution of AmB was titrated with a suspension of large unilamellar vesicles (LUVs) comprised of only 1-palmitoyl-2-oleoyl-sn-glycero-3-phosphocholine (POPC), and the net exotherm was recorded. The titration was repeated using POPC LUVs containing 10% ergosterol. […] The titration was repeated using C2′epiAmB. […] The ITC assay was also conducted with cholesterol in place of ergosterol.
Experiments were performed using a NanoITC isothermal titration calorimeter (TA Instruments, Wilmington, Del.). Solutions of the compounds to be tested were prepared by diluting a 60.0 mM stock solution of the compound in DMSO to 600 μM with K buffer (5.0 mM HEPES/KHEPES, pH=7.4). The final DMSO concentration in the solution was 1% v/v. Large unilamellar vesicles comprised of only 1-palmitoyl-2-oleoyl-sn-glycero-3-phosphocholine (POPC LUVs) were prepared and phosphorus and ergosterol content was quantified as described below. The LUV solutions were diluted with buffer and DMSO to give a final phospholipid concentration of 12.0 mM in a 1% DMSO/K buffer solution. Immediately prior to use, all solutions were incubated at 37° C. for 30 minutes and degassed under vacuum at 37° C. for 10 minutes. The reference cell of the instrument (volume=0.190 mL) was filled with a solution of 1% v/v DMSO/K buffer.
Palmitoyl oleoyl phosphatidylcholine (POPC) was obtained as a 20 mg/mL solution in CHCl3 from Avanti Polar Lipids (Alabaster, Ala.) and was stored at −20° C. under an atmosphere of dry argon and used within 1 month. […]
Ergosterol content was determined spectrophotometrically. […] The solutions were then analyzed by UV/Vis spectroscopy and the concentration of ergosterol in solution was determined by the extinction coefficient of 10400 L mol^−1 cm^−1 at the UVmax of 282 nm and was compared to the concentration of phosphorus to determine the percent sterol content. The extinction coefficient was determined independently in the above ternary solvent system. […]

[2] = ITC titration with sterol-free POPC LUVs; assay type: binding; settings: no sterol LUVs, 600 μM compound
Procedure: as §1, §2
Experiments were performed using a NanoITC isothermal titration calorimeter (TA Instruments, Wilmington, Del.). Solutions of the compounds to be tested were prepared by diluting a 60.0 mM stock solution of the compound in DMSO to 600 μM with K buffer (5.0 mM HEPES/KHEPES, pH=7.4). The final DMSO concentration in the solution was 1% v/v. Large unilamellar vesicles comprised of only 1-palmitoyl-2-oleoyl-sn-glycero-3-phosphocholine (POPC LUVs) were prepared and phosphorus and ergosterol content was quantified as described below. […]
NanoAnalyze software (TA Instruments) was used for baseline determination and integration of the injection heats, and Microsoft Excel was used for subtraction of dilution heats and the calculation of overall heat evolved. […] By this method, the overall heat evolved during the experiment was calculated using the following formula: […]

[3] = system: C. albicans; assay: Broth microdilution MIC assay; assay type: cell-based; settings: Candida albicans, 24 hours, 37° C., no visible growth
Procedure: Exemplary methods for antifungal activity assays are as follows:
C. albicans was cultured in a similar manner to S. cerevisiae except both liquid and solid cultures were incubated at 37° C.
The protocol for the broth microdilution assay was adapted from the Clinical and Laboratory Standards Institute document M27-A2. Clinical and Laboratory Standards Institute. Reference Method for Broth Dilution Antifungal Susceptibility Testing, M27-A2, Approved Standard 2nd Ed. Vol. 22, Number 15, 2002. 50 mL of YPD media was inoculated and incubated overnight at either 30° C. (S. cerevisiae) or 37° C. (C. albicans) in a shaker incubator. The cell suspension was then diluted with YPD to an OD600 of 0.10 (˜5×10^5 cfu/mL) as measured by a Shimadzu (Kyoto, Japan) PharmaSpec UV-1700 UV/Vis spectrophotometer. The solution was diluted 10-fold with YPD, and 195 μL aliquots of the dilute cell suspension were added to sterile Falcon (Franklin Lakes, N.J.) Microtest 96-well plates in triplicate. Compounds were prepared either as […] (AmB, C2′deOAmB) or 2 mM (AmdeB) stock solutions in DMSO and serially diluted to the following concentrations with DMSO: 1600, 1200, 800, 400, 320, 240, 200, 160, 120, 80, 40, 20, 10 and 5 μM. 5 μL aliquots of each solution were added to the 96-well plate in triplicate, with each column representing a different concentration of the test compound. […]

**Q.** Which results are given for `C[C@@H]1[C@H](O)[C@@H](C)/C=C/C=C/C=C/C=C/C=C/C=C/C=C/[C@H](O[C@@H]2O[C@H](C)[C@@H](O)[C@H](N)[C@H]2O)CC2O[C@](O)(C[C@@H](O)C[C@@H](O)[C@H](O)CC[C@@H](O)C[C@@H](O)CC(=O)O[C@H]1C)C[C@H](O)[C@H]2C(=O)O` [C2′epiAmB]?
**A.** Total exotherm ([1]; 10% ergosterol LUVs, 600 μM compound): -15.24 ± 1.66 µcal; Binding to ergosterol (in words) ([1]; net exotherm vs sterol-free LUVs): binds to ergosterol; also recorded: retained capacity for the epimeric derivative to bind ergosterol; Total exotherm [2]: -6.70 ± 0.11 µcal; MIC [3]: 2 µM (≈ 1.85 µg/mL)
